PMC10442743 (Dalton Transactions (Cambridge, England : 2003), 2023)
Like-named read-outs stand apart in the source and are kept apart here.

How the values were obtained:
[1] = test system: L929; assay: MTT cytotoxicity assay, L929 fibroblasts (and selectivity index); assay type: cell-based, mouse; conditions: for SI (selectivity index): IC50 L929 divided by average IC50 of the breast cancer cell lines; for IC50: MTT
Method: The cytotoxicity of 1–11CA was assessed against human breast cancer MCF-7 and MDA-MB-231 cells, and non-tumorigenic adherent mouse fibroblast connective tissue L929 cells using the MTT assay after 24 and 72 h (Tables S5 ^† and Table 1, respectively).
Then, necessary dilutions were made using the supplement DMEM, to prepare the range of tested concentrations. Since DMSO was used to solubilize the compounds, a supplemented DMEM + DMSO (at the same percentage as in the sequential dilutions) was considered as a control in the 3-[4,5-dimetylthiazole-2-yl]-2,5-diphenyltetrazolium bromide (MTT) assay.
L929, MCF-7, and MDA-MB-231 cell lines were cultured in DMEM supplemented with 10% (v/v) FBS and 1% (v/v) of penicillin–streptomycin. The cells were incubated in a humidified chamber at 37 °C under saturated air with a 5% CO2 atmosphere. Cells were passed at 80%–90% of confluency with 0.25% (w/v) trypsin and the cell culture media was changed every 2–3 days.
The compounds were tested on two breast cancer cell lines (MCF-7 and MDA-MB-231) and L929 fibroblasts, used as a reference for the safety evaluation according to ISO 10993-1:2009 “Biological evaluation of medical devices”. Cells were seeded on sterile 96-well plates at 50 000 cells per well (L929) and 20 000 cells per well (MCF-7 and MDA-MB-231) in supplemented DMEM medium (100 μL) for 24 h. The culture medium was removed and new media containing different concentrations of the compounds (0–1000 μM) was added to the wells (100 μL). Control cells were incubated under the same conditions in the absence of a compound. Cells were incubated for 24 and 72 h under the same conditions described above. Then, the medium was removed, and the cells were incubated with 3-(4,5-dimethylthiazol-2-yl)-2,5-diphenyltetrazolium bromide (MTT; 0.5 mg mL^−1) for 3 h. After this time, the medium was removed, and formazan crystals were solubilized with DMSO (100 μL per well). The absorbance in each well was read on a SynergyTM HT Multimode microplate reader (BioTek Instruments; Winooski, VT, USA) at 570 and 630 nm (for background correction), and the cell viability was calculated according to the following equation (eqn (1)):1 [drawing 3] where OD570(sample) and OD630(sample) are the optical densities of the solutions containing the compounds and OD570(control) and OD630(control) are controls without compound.
Each apoptosis value determination represents the mean ± standard deviation of 2 independent assays. The IC50 values were obtained using GraphPad Prism software and ANOVA (analysis of variance) was performed to determine the statistical difference between the IC50 values of different cell lines.

[2] = n-octanol/water partition coefficient (shake-flask, ICP-MS)
Method: The saturated solutions were filtered
(DigiPREP Jr. 15ml, 40 Pos, SCP Science). The digestion program was the following: 15
After the digestion, the sample
Samples were further diluted
range. All measurements were performed in triplicates.
lipophilicity of a compound. This assay was performed following the Shake-flask method
organic and aqueous phase. Aliquots of each phase were taken and analyzed separately
range. The partition coefficient was calculated as P!"=
respectively. All measurements were performed in triplicates.

[3] = test system: pBR322 DNA
Method: The interaction of 11Cl with plasmid DNA was also assessed by visualizing the relaxation of the plasmid using agarose gel electrophoresis (Fig. 4). Different concentrations of the 11Cl were incubated with pBR322 DNA at 37 °C for 24 h and then analyzed by gel electrophoresis (Fig. 4).
Assays were performed using 1.2% (w/v) agarose gels. A plasmid pBR322 DNA was purchased from Thermofisher Scientific® at 0.5 μg μL^−1 concentration in phosphate buffer 50 mM (pH 7.4). A 20 μL portion containing 0.125 μg μL^−1 of DNA in 10 mM Tris-HCl (pH 7.6) and 1 mM EDTA was incubated with increasing volumes of the stock solution of 11Cl (1 mM in DMSO) at ri values ranging from 0.05 to 0.5 (ri = [complex]/[no. nucleotide]). […] 20 μL of the sample was loaded in the agarose gel (1.2% w/v), and electrophoresis was carried out for a period of 100 min at 40 V in TAE 1× (Tris-acetate/EDTA) buffer. After electrophoresis, the gel was immersed in 200 mL of TAE 1× buffer containing 20 μL of a stock solution of SYBR safe for 30 min to stain the DNA. Then, the gel was washed with Mili Q water for 10 min and the stained gel was analyzed with a blue light in a Safe Imager™ 2.0 (Invitrogen).

[4] = Solubility in water (ICP-MS); conditions: 25 °C, limit of detection = 5 ppt
Method: sonication, the mixtures were stirred at 25 °C for 1 h. The saturated solutions were filtered
to remove any insoluble solids, dissolved in 0.5 mL of MilliQ water, and analyzed using
ICP-MS. Samples were submitted to acidic digestion with 2 mL of concentrated HNO3
min to heat to 100°C and keep at 100°C for 60 min. After the digestion, the sample
volumes were precisely adjusted to 5 mL with MilliQ water. Samples were further diluted
30 times with 2% HNO3 solution and their Ru content was analyzed by ICP-MS using
standard mode on NexIon 350 D ICP-MS instrument (PerkinElmer). Yttrium was added
as an internal standard at a concentration of 2 ppb to all the solution and Ru quantitation
was performed using an external calibration curve with standards in the 0.05-50 ppb

[5] = test system: ctDNA; assay: Circular dichroism / induced circular dichroism with calf thymus DNA
Method: Calf thymus (ct) DNA (Merck®) was used to perform the circular dichroism assay to detect conformational changes in the ctDNA induced by the compounds. CD spectral data was collected on a Chirascan™ V100 (Applied Photophysics) spectropolarimeter equipped with a large area Avalanche photodiodes detector and computer-controlled thermoelectrical cell holder using a 1 cm path length quartz cuvette. CD spectra of ctDNA in the absence and presence of different concentrations of 11Cl were recorded at wavelengths ranging from 320 to 190 nm under constant nitrogen flush at 25 °C. For each CD spectrum, the number of scans was set to 5, and spectral data were collected at 0.1 ms intervals. Additionally, methyl green (MG) and 4′,6-diamidino-2-phenylindole (DAPI), and propidium iodide (PI) were analyzed as minor and major groove binders and as an intercalator, respectively, to help identify the binding mode of 11Cl to DNA. Samples were prepared in 10 mM Tris-HCl buffer (pH 7.6) with 1 mM EDTA. The concentration of ctDNA was fixed at 100 μM (concerning base pairs) and the ctDNA to 11Cl ratio was varied between 0 and 1. The samples were incubated for 24 h at 37 °C and then analyzed in the CD spectropolarimeter.

Cc1ccccc1.[Cl-].[Cl][Ru+]([PH](c1ccccc1)(c1ccccc1)c1ccccc1)[PH](c1ccccc1)(c1ccccc1)c1ccccc1 [Compound 11Cl, [Ru(η^6-toluene)(PPh3)2Cl]Cl]
selectivity for the breast cancer cell lines compared to the healthy ones [1]: ~10 fold | SI (selectivity index) ([1]; 24 h): 1.1 | IC50 ([1]; 24 h exposure, read-out: IC50 (µM) (average ± standard deviation) 24 h L929): 5.3 ± 0.7 µM | SI (selectivity index) ([1]; 72 h): 11.8 | IC50 ([1]; 72 h exposure, read-out: IC50 (μM) (average ± standard deviation) 72 h L929): 0.87 ± 0.05 µM | LogPow [2]: 1.48 ± 0.29 | stabilization of the linear form of plasmid DNA ([3]; 37 °C, 24 h, ri 0.01–0.5): did not induce the stabilization of the linear form | precipitation of DNA ([3]; all studied concentrations): no precipitation was observed | ri ratio from which alterations in the supercoiled structure (tailing, slight retardation) appear ([3]; ri = [11Cl]/[DNA bp], 37 °C, 24 h): ≥ 0.2 | Solubility (μM) [4]: 528 ± 88 µM | Solubility (μg/mL) [4]: 416 ± 70 µg/mL | CD band 210 nm, intensity change ([5]; DNA, 24 h, 37 °C): decrease in the ellipticity | CD band 210 nm, wavelength shift ([5]; DNA, 24 h, 37 °C): remained unchanged | CD band 220 nm (hydrogen bonding), intensity change ([5]; DNA, 24 h, 37 °C): increase in the circularity | CD band 220 nm (hydrogen bonding), wavelength shift ([5]; DNA, 24 h, 37 °C): small bathochromic (red) shift | CD band 246 nm (helicity), intensity change ([5]; DNA, 24 h, 37 °C): decrease in the ellipticity | CD band 246 nm (helicity), wavelength shift ([5]; DNA, 24 h, 37 °C): remained unchanged | CD band 268−280 nm (base-pair stacking interactions), intensity change ([5]; DNA, 24 h, 37 °C): decrease in the ellipticity | CD band 268−280 nm (base-pair stacking interactions), wavelength shift ([5]; DNA, 24 h, 37 °C): remained unchanged | decrease of the intensity of the ICD bands of DAPI ([5]; DNA–DAPI after treatment with 11Cl): 35% | decrease of the intensity of the ICD bands of MG ([5]; DNA–MG after treatment with 11Cl): 20%
